Tests used:
Type in all cases: in vivo
[1] = tested on: flowering Arabidopsis thaliana plants; assay: visual fluorescent pollen transgene assay, crossover frequency in interval I2a (chromosome 2)
[2] = tested on: flowering Arabidopsis thaliana plants; assay: visual fluorescent pollen transgene assay, crossover frequency in interval I2b (chromosome 2); conditions: for NPD (Nonparental Ditype pollen tetrads) / PD (Parental Ditype pollen tetrads) / TT (Tetratype pollen tetrads) / genetic map distance: 0.01% Silwet in water, Exp.(1); for genetic map distance: Water control 5.11 cM
[3] = tested on: flowering Arabidopsis thaliana plants; assay: visual fluorescent pollen transgene assay, crossover frequency in interval I5d (chromosome 5)
Procedure: An aqueous solution of 3-aminobutanoic acid was applied to flowering Arabidopsis thaliana plants to enhance the frequency of meiotic recombination (crossovers). Silwet, a spraying adjuvant, was added to the 3-aminobutanoic acid solution at a volume/volume concentration of 0.01%. The solution was applied to the plants by foliar spraying until the plants were drenched. Several concentrations of 3-aminobutanoic acid were used including 0.1, 1, 7.5, 10, 12.5 and 15 mM. As a control, other plants (i.e., control plants) were treated with an aqueous 0.01% solution of Silwet by foliar spraying the solution on the plants until the plants were drenched.
(§1) Crossover frequencies were measured in pollen from treated and control plants using a visual fluorescent pollen transgene assay as described in Francis et al., Proc Natl Acad Sci USA. 2007; 104 (10): 3913-3918. In this assay pollen tetrads are scored as Parental Ditype (PD), Nonparental Ditype (NPD) or Tetratype (TT) and the frequency of those tetrad classes are used to calculate a genetic map distances in centiMorgans (cM) between reporter genes expressing fluorescent proteins. The genetic map distances between a pair of markers on chromosome 5 were compared between control plants and treated plants. The genetic interval between the two markers was designated as I5d. […] In Table 2, each experimental treatment is paired with data from control plants that were treated and scored together and designated with an experiment number in the first column.
An aqueous solution phenethyl isothiocyanate (IUPAC name: 2-isothiocyanatoethylbenzene) was applied to flowering Arabidopsis thaliana plants to enhance the frequency of meiotic recombination (crossovers). Phenethyl isothiocyanate in an aqueous solution containing 10% DMSO and 0.01% Silwet was applied by foliar spray until the plants were drenched. The phenethyl isothiocyanate was first dissolved in 100% DMSO and then diluted to its final concentration with 0.0.1% Silwet in water. Several concentrations of phenethyl isothiocyanate were used including 7.5, 10, and 12.5 mM. Control plants were treated with an aqueous solution of 10% DMSO and 0.01% Silwet by foliar spraying the solution on the control plants until the control plants were drenched.
as §1, with “4,” for “2,”
An aqueous solution BIX-01294 (IUPAC name: N-(1-benzylpiperidin-4-yl)-6,7-dimethoxy-2-(4-methyl-1,4-diazepan-1-yl) quinazolin-4-amine) was applied to flowering Arabidopsis thaliana plants to enhance the frequency of meiotic recombination (crossovers). BIX-01294 in an aqueous solution containing 10% DMSO and 0.01% Silwet was applied by foliar spray until the plants were drenched. The BIX-01294 was first dissolved in 100% DMSO and then diluted to its final concentration with 0.0.1% Silwet in water. Several concentrations of […] were used including 0.5, 1, 2.5 and 5 mM. Control plants were treated with an aqueous solution of 10% DMSO and 0.01% Silwet by foliar spraying the solution on the control plants until the control plants were drenched. […]

[4] = 2.5 mM foliar spray, Example 4, Exp.(1)
[5] = 7.5 mM foliar spray, Example 4, Exp.(1)
[6] = 10 mM foliar spray, Example 4, Exp.(1)
[7] = 0.1 mM foliar spray, 0.01% Silwet in water, Exp.(1)
[8] = 1 mM foliar spray, 0.01% Silwet in water, Exp.(2)
[9] = 10 mM foliar spray, 0.01% Silwet in water, Exp.(1)
[10] = 12.5 mM foliar spray, 0.01% Silwet in water, Exp.(3)
[11] = 15 mM foliar spray, 0.01% Silwet in water, Exp.(3)
[12] = 0.1 mM foliar spray, 10% DMSO and 0.01% Silwet, Exp.(1)
[13] = 0.5 mM foliar spray, 10% DMSO and 0.01% Silwet, Exp.(1)
[14] = 1 mM foliar spray, 10% DMSO and 0.01% Silwet, Exp.(1)
[15] = 2.5 mM foliar spray, 10% DMSO and 0.01% Silwet, Exp.(2)
[16] = 5 mM foliar spray, 10% DMSO and 0.01% Silwet, Exp.(2)
[17] = 1 mM foliar spray, 10% DMSO and 0.01% Silwet, Exp.(2)
[18] = 2.5 mM foliar spray, 10% DMSO and 0.01% Silwet, Exp.(3)
[19] = 5 mM foliar spray, 10% DMSO and 0.01% Silwet, Exp.(3)

What does the source list for CC(N)CC(=O)O (stereo not shown) [3-aminobutanoic acid]?
NPD (Nonparental Ditype pollen tetrads) [1, 4]: 0; PD (Parental Ditype pollen tetrads) [1, 4]: 924; TT (Tetratype pollen tetrads) [1, 4]: 67; genetic map distance ([1]; 2.5 mM foliar spray, Example 4, Exp.(1), DMSO control 2.32 cM, p-value 0.021): 3.38 cM; NPD (Nonparental Ditype pollen tetrads) [1, 5]: 0; PD (Parental Ditype pollen tetrads) [1, 5]: 914; TT (Tetratype pollen tetrads) [1, 5]: 66; genetic map distance ([1]; 7.5 mM foliar spray, Example 4, Exp.(1), DMSO control 2.32 cM, p-value 0.023): 3.37 cM; NPD (Nonparental Ditype pollen tetrads) [1, 6]: 0; PD (Parental Ditype pollen tetrads) [1, 6]: 941; TT (Tetratype pollen tetrads) [1, 6]: 60; genetic map distance ([1]; 10 mM foliar spray, Example 4, Exp.(1), DMSO control 2.32 cM, p-value 0.090): 3.00 cM; meiotic recombination in treated plants compared to control plants ([1]; Example 4, 2.5 and 7.5 mM, two of three concentrations (not 10 mM)): increased meiotic recombination; NPD (Nonparental Ditype pollen tetrads) ([2]; 7.5 mM foliar spray): 3; PD (Parental Ditype pollen tetrads) ([2]; 7.5 mM foliar spray): 867; TT (Tetratype pollen tetrads) ([2]; 7.5 mM foliar spray): 128; genetic map distance ([2]; 7.5 mM foliar spray, p-value 0.006): 7.31 cM; NPD (Nonparental Ditype pollen tetrads) ([2]; 10 mM foliar spray): 1; PD (Parental Ditype pollen tetrads) ([2]; 10 mM foliar spray): 866; TT (Tetratype pollen tetrads) ([2]; 10 mM foliar spray): 140; genetic map distance ([2]; 10 mM foliar spray, p-value 0.003): 7.25 cM; NPD (Nonparental Ditype pollen tetrads) ([2]; 12.5 mM foliar spray): 0; PD (Parental Ditype pollen tetrads) ([2]; 12.5 mM foliar spray): 865; TT (Tetratype pollen tetrads) ([2]; 12.5 mM foliar spray): 155; genetic map distance ([2]; 12.5 mM foliar spray, p-value 0.000): 7.60 cM; meiotic recombination in treated plants compared to control plants ([2]; all three concentrations (7.5, 10, 12.5 mM)): increased meiotic recombination; NPD (Nonparental Ditype pollen tetrads) [3, 7]: 0; PD (Parental Ditype pollen tetrads) [3, 7]: 926; TT (Tetratype pollen tetrads) [3, 7]: 178; genetic map distance ([3]; 0.1 mM foliar spray, 0.01% Silwet in water, Exp.(1), Water control 5.89 cM, p-value 0.002): 8.06 cM; NPD (Nonparental Ditype pollen tetrads) [3, 8]: 0; PD (Parental Ditype pollen tetrads) [3, 8]: 983; TT (Tetratype pollen tetrads) [3, 8]: 169; genetic map distance ([3]; 1 mM foliar spray, 0.01% Silwet in water, Exp.(2), Water control 5.37 cM, p-value 0.003): 7.34 cM; NPD (Nonparental Ditype pollen tetrads) [3, 9]: 0; PD (Parental Ditype pollen tetrads) [3, 9]: 1092; TT (Tetratype pollen tetrads) [3, 9]: 221; genetic map distance ([3]; 10 mM foliar spray, 0.01% Silwet in water, Exp.(1), Water control 5.89 cM, p-value 0.000): 8.42 cM; NPD (Nonparental Ditype pollen tetrads) [3, 10]: 4; PD (Parental Ditype pollen tetrads) [3, 10]: 908; TT (Tetratype pollen tetrads) [3, 10]: 166; genetic map distance ([3]; 12.5 mM foliar spray, 0.01% Silwet in water, Exp.(3), Water control 5.50 cM, p-value 0.000): 8.81 cM; NPD (Nonparental Ditype pollen tetrads) [3, 11]: 2; PD (Parental Ditype pollen tetrads) [3, 11]: 849; TT (Tetratype pollen tetrads) [3, 11]: 160; genetic map distance ([3]; 15 mM foliar spray, 0.01% Silwet in water, Exp.(3), Water control 5.50 cM, p-value 0.000): 8.51 cM; meiotic recombination in treated plants compared to controls ([3]; all concentrations (Table 2: 0.1, 1, 10, 12.5, 15 mM)): increase meiotic recombination

COc1cc2nc(N3CCCN(C)CC3)nc(NC3CCN(Cc4ccccc4)CC3)c2cc1OC [BIX-01294, N-(1-benzylpiperidin-4-yl)-6,7-dimethoxy-2-(4-methyl-1,4-diazepan-1-yl) quinazolin-4-amine] was tested. Which “NPD (Nonparental Ditype pollen tetrads)” value [1, 12] did it give?
Its value is 0.

What about the “PD (Parental Ditype pollen tetrads)” value [1, 12] of the same compound?
Its value is 908.

And the “TT (Tetratype pollen tetrads)” value [1, 12]?
Its value is 59.

What about the genetic map distance ([1]; 0.1 mM foliar spray, 10% DMSO and 0.01% Silwet, Exp.(1), DMSO control 2.19 cM, p-value 0.046) of the same compound?
The genetic map distance was 3.05 cM.

What about the “NPD (Nonparental Ditype pollen tetrads)” value [1, 13] of the same compound?
Its value is 0.

And the “PD (Parental Ditype pollen tetrads)” value [1, 13]?
Its value is 922.

What about the “TT (Tetratype pollen tetrads)” value [1, 13] of the same compound?
The value was 84.

What about the genetic map distance ([1]; 0.5 mM foliar spray, 10% DMSO and 0.01% Silwet, Exp.(1), DMSO control 2.19 cM, p-value 0.000) of the same compound?
Its genetic map distance is 4.17 cM.

What about the “NPD (Nonparental Ditype pollen tetrads)” value [1, 14] of the same compound?
Its value is 0.

What about the “PD (Parental Ditype pollen tetrads)” value [1, 14] of the same compound?
The value was 988.

What about the “TT (Tetratype pollen tetrads)” value [1, 14] of the same compound?
The value was 99.

What about the genetic map distance ([1]; 1 mM foliar spray, 10% DMSO and 0.01% Silwet, Exp.(1), DMSO control 2.19 cM, p-value 0.000) of the same compound?
The genetic map distance was 4.55 cM.

And the “NPD (Nonparental Ditype pollen tetrads)” value [1, 15]?
Its value is 0.

What about the “PD (Parental Ditype pollen tetrads)” value [1, 15] of the same compound?
The value was 777.

What about the “TT (Tetratype pollen tetrads)” value [1, 15] of the same compound?
The value was 55.

And the genetic map distance ([1]; 2.5 mM foliar spray, 10% DMSO and 0.01% Silwet, Exp.(2), DMSO control 2.75 cM, p-value 0.163)?
Its genetic map distance is 3.31 cM.

What about the “NPD (Nonparental Ditype pollen tetrads)” value [1, 16] of the same compound?
Its value is 0.

And the “PD (Parental Ditype pollen tetrads)” value [1, 16]?
The value was 836.

What about the “TT (Tetratype pollen tetrads)” value [1, 16] of the same compound?
Its value is 43.

And the genetic map distance ([1]; 5 mM foliar spray, 10% DMSO and 0.01% Silwet, Exp.(2), DMSO control 2.75 cM, p-value 0.725)?
The genetic map distance was 2.45 cM.

What about the “meiotic recombination in treated plants compared to control plants” value ([1]; 0.1, 0.5 and 1 mM, three of five concentrations (not 2.5, 5 mM)) of the same compound?
The value was “increased meiotic recombination”.

What about the “NPD (Nonparental Ditype pollen tetrads)” value [3, 13] of the same compound?
Its value is 1.

And the “PD (Parental Ditype pollen tetrads)” value [3, 13]?
Its value is 936.

What about the “TT (Tetratype pollen tetrads)” value [3, 13] of the same compound?
The value was 185.

And the genetic map distance ([3]; 0.5 mM foliar spray, 10% DMSO and 0.01% Silwet, Exp.(1), DMSO control 6.04 cM, p-value 0.001)?
The genetic map distance was 8.51 cM.

What about the “NPD (Nonparental Ditype pollen tetrads)” value [3, 17] of the same compound?
The value was 0.

And the “PD (Parental Ditype pollen tetrads)” value [3, 17]?
The value was 829.

What about the “TT (Tetratype pollen tetrads)” value [3, 17] of the same compound?
Its value is 131.

And the genetic map distance ([3]; 1 mM foliar spray, 10% DMSO and 0.01% Silwet, Exp.(2), DMSO control 6.73 cM, p-value 0.454)?
The genetic map distance was 6.82 cM.

What about the “NPD (Nonparental Ditype pollen tetrads)” value [3, 18] of the same compound?
The value was 5.

And the “PD (Parental Ditype pollen tetrads)” value [3, 18]?
Its value is 888.

And the “TT (Tetratype pollen tetrads)” value [3, 18]?
Its value is 169.

And the genetic map distance ([3]; 2.5 mM foliar spray, 10% DMSO and 0.01% Silwet, Exp.(3), DMSO control 5.31 cM, p-value 0.000)?
The genetic map distance was 9.37 cM.

And the “NPD (Nonparental Ditype pollen tetrads)” value [3, 19]?
Its value is 4.

And the “PD (Parental Ditype pollen tetrads)” value [3, 19]?
The value was 938.

What about the “TT (Tetratype pollen tetrads)” value [3, 19] of the same compound?
Its value is 156.

What about the genetic map distance ([3]; 5 mM foliar spray, 10% DMSO and 0.01% Silwet, Exp.(3), DMSO control 5.31 cM, p-value 0.001) of the same compound?
Its genetic map distance is 8.20 cM.

What about the “meiotic recombination in treated plants compared to controls” value ([3]; 0.5, 2.5 and 5 mM, three of four concentrations (not 1 mM)) of the same compound?
Its value is “increase meiotic recombination”.
